The source of these data is patent publication US20240316051A1, “A PHARMACEUTICAL COMBINATION AND USE THEREOF” (Ascentage Pharma (Suzhou) Co., Ltd., priority 2021, published 2024).

The target in this assay is T1, EED (1-441)-His protein (Homo sapiens, UniProt O75530).
T1 construct: 20 nM EED (1-441)-His protein
Briefly: EED-H3K27Me3 peptide competition binding assay by AlphaScreen. As to conditions: read-out: Alpha screen. The method, boiled down:
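Readout was AlphaScreen emission at 615 nm after 680 nm excitation, with 10 μg/ml final each of streptavidin donor and nickel chelate acceptor beads, 1 h at RT in the dark. Beforehand, compound met the His-tagged EED(1-441) for 15 min and then biotinylated H3K27Me3(19-33) peptide for 30 min; both were added as 20 nM solutions, buffer 25 mM HEPES pH 8, Tween-20, BSA. Percent activity left was fitted to give IC50.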
A general note: Alpha assays give light when donor and acceptor beads are brought close together.

pIC50: −log10 of the molar value. Where two headings read alike, the source gives them in different places.

T1 sequence (O75530 whole entry): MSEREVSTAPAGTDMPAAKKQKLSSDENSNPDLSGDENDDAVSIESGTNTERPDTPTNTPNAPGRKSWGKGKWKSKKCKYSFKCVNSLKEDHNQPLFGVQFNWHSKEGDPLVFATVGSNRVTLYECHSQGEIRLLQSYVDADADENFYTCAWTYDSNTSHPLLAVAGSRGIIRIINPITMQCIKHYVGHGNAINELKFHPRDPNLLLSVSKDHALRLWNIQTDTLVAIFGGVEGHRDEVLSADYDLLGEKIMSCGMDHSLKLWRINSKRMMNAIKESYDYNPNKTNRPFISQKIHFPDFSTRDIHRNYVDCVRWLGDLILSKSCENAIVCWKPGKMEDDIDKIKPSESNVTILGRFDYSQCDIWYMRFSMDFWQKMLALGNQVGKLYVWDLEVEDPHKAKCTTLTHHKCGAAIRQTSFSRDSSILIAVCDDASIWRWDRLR

With `COc1cccc(F)c1CNc1ncc2c3c(ncn13)C(=O)N(C(C)C)Cc1nc(C(F)(F)F)ccc1-2` [Compound 71, 12-((2-fluoro-6-methoxybenzyl)amino)-4-isopropyl-7-(trifluoromethyl)-4,5-dihydro-3H-2,4,6,11,12a-pentaazabenzo[4,5]cycloocta[1,2,3-cd]inden-3-one], the pIC50 (Table 4A) was 8.05.
As for `O=C1OCc2ccc(C(F)(F)F)nc2-c2cnc(NCc3c(F)ccc4c3CCO4)n3cnc1c23` [Compound 29, 12-(((5-fluoro-2,3-dihydrobenzofuran-4-yl)methyl)amino)-8-(trifluoromethyl)-3H,5H-4-oxa-2,9,11, 12a-tetraazabenzo[4,5]cycloocta[1,2,3-cd]inden-3-one], the pIC50 (Table 4A) is 7.68.
On the same count and under the same terms, the result for `CN1CCC(CN2Cc3cc(C(F)(F)F)ncc3-c3cnc(NCc4c(F)ccc5c4CCO5)n4cnc(c34)C2=O)CC1` [Compound 38, 12-(((5-fluoro-2,3-dihydrobenzofuran-4-yl)methyl)amino)-4-((1-methylpiperidin-4-yl)methyl)-7-(trifluoromethyl)-4,5-dihydro-3H-2,4,8,11,12a-pentaazabenzo[4,5]cycloocta[1,2,3-cd]inden-3-one] reads 8.90.
Take `CC(C)c1ccc2c(n1)CN(CC(F)(F)F)C(=O)c1ncn3c(NCc4c(F)ccc5c4CCO5)ncc-2c13` [E 15, 12-(((5-fluoro-2,3-dihydrobenzofuran-4-yl)methyl)amino)-7-isopropyl-4-(2,2,2-trifluoroethyl)-4,5-dihydro-3H-2,4,6,11,12a-pentaazabenzo[4,5] cycloocta[1,2,3-cd]inden-3-one]: the pIC50 (IC50 class, Table 4B) was more than 8.00.
Turning to `O=C1OCc2cc(F)ccc2-c2cnc(NCc3c(F)ccc4c3CCO4)n3cnc1c23` [Compound 7, 7-fluoro-12-(((5-fluoro-2,3-dihydrobenzofuran-4-yl)methyl)amino)-3H,5H-4-oxa-2,11,12a-triazabenzo [4,5]cycloocta[1,2,3-cd]inden-3-one], for the setting “Table 4A”, the pIC50 is 9.21.
On to `CC1(O)CC(CN2Cc3nc(C(F)(F)F)ccc3-c3cnc(NCc4c(F)ccc5c4CCO5)n4cnc(c34)C2=O)C1` (stereo not shown) [Compound 47, 12-(((5-fluoro-2,3-dihydrobenzofuran-4-yl)methyl)amino)-4-((3-hydroxy-3-methylcyclobutyl)methyl)-7-(trifluoromethyl)-4,5-dihydro-3H-2,4,6,11,12a-pentaazabenzo[4,5]cycloocta[1,2,3-cd]inden-3-one], for which, under “Table 4A”, the pIC50 was 9.04.
With `O=C1OCc2cnc(C(F)(F)F)cc2-c2cnc(NCc3c(F)ccc4c3CCO4)n3cnc1c23` [Compound 32, 12-(((5-fluoro-2,3-dihydrobenzofuran-4-yl)methyl)amino)-8-(trifluoromethyl)-3H,5H-4-oxa-2,7,11, 12a-tetraazabenzo[4,5]cycloocta[1,2,3-cd]inden-3-one], where the note is “Table 4A”, the pIC50 was 8.74.
Consider `Cc1ccc2c(n1)Cn1ccnc1-c1ncn3c(NCc4c(F)ccc5c4CCO5)ncc-2c13` [E 34, N-((5-fluoro-2,3-dihydrobenzofuran-4-yl)methyl)-8-methyl-6H-2,3,5a,7,12,13a-hexaazabenzo[4,5] cyclopenta[7,8]cycloocta[1,2,3-cd]inden-13-amine], for which the pIC50 (IC50 class, Table 4B) is 7.00 to 8.00.
For the molecule `Cc1ccc2c(n1)CN(CC(F)(F)F)C(=O)c1ncn3c(NCc4c(F)ccc5c4CCCO5)ncc-2c13` [E 39, 12-(((6-fluorochroman-5-yl)methyl)amino)-7-methyl-4-(2,2,2-trifluoroethyl)-4,5-dihydro-3H-2,4,6, 11,12a-pentaazabenzo[4,5]cycloocta[1,2,3-cd] inden-3-one], the pIC50 (IC50 class, Table 4B) is 7.00 to 8.00.
Regarding `O=C1OCc2cc(C(F)(F)F)ncc2-c2cnc(NCc3c(F)ccc4c3CCO4)n3cnc1c23` [Compound 13, 12-(((5-fluoro-2,3-dihydrobenzofuran-4-yl)methyl)amino)-7-(trifluoromethyl)-3H,5H-4-oxa-2,8,11, 12a-tetraazabenzo[4,5]cycloocta[1,2,3-cd]inden-3-one], for the setting “Table 4A”, the pIC50 is 8.96.
